Columns and labels:
[1] = system: Cdkn1a mRNA; experiment: Ursolic acid i.p., Cdkn1a mRNA by qPCR in immobilized TA muscle; type: in vivo, C57BL/6 mice; conditions: ursolic acid 200 mg/kg i.p. twice a day from day 0; TA immobilized day 2; harvest day 5; vs vehicle (corn oil)
Experimental: (§1) (A-E) Beginning on day 0, 6-8 wk old male C57BL/6 mice were given i.p. injections of ursolic acid (200 mg/kg) or an equal volume of vehicle (corn oil) twice a day. On day 2, the left tibialis anterior (TA) muscle of each mouse was immobilized. During immobilization, vehicle or ursolic acid continued to be administered via i.p. injection twice daily, and the right TA remained mobile and served as an intrasubject control. (A) On day 5, mice were euthanized and bilateral TA muscles were harvested. mRNA levels were determined with qPCR. In each mouse, mRNA levels from the immobile TA were normalized to values from the mobile TA, which were set at one. Data are means±SEM from ≧6 mice per condition. * P<0.05. (B-E) On day 8, bilateral TA muscles were harvested and weighed. (B) Effect of ursolic acid on skeletal muscle weight. In each mouse, the left (immobile) TA weight was normalized to the right (mobile) TA weight. Data are means±SEM from 10 mice per condition; ***P<0.001 by unpaired t-test. (C-E) Effect of ursolic acid on skeletal muscle fiber diameter. […]
(§2) Exon Arrays and Quantitative Real-Time RT-PCR (qPCR) in Muscle and Myotubes—Extraction of skeletal muscle RNA and RNA hybridizations to Mouse Exon 1.0 ST arrays (Affymetrix) were performed as described previously (Ebert, S. M., et al. (2010) Mol. Endocrinol. 24, 790-799). […]

[2] = system: Gadd45a mRNA; experiment: Ursolic acid i.p., Gadd45a mRNA by qPCR in immobilized TA muscle; type: in vivo, C57BL/6 mice; conditions: ursolic acid 200 mg/kg i.p. twice a day from day 0; TA immobilized day 2; harvest day 5; vs vehicle (corn oil)
Experimental: as §1, §2

[3] = system: tibialis anterior (TA) muscle; experiment: Ursolic acid i.p., recovery from immobilization-induced skeletal muscle atrophy after remobilization; type: in vivo, mouse; conditions: TA immobilized 7 days, then remobilized; 200 mg/kg i.p. twice daily started at remobilization; vs vehicle
[4] = system: quadriceps muscle mRNAs (IGF-I, Ar, Ppargc1a, Tfam, Nos1, Vegfa, Hk2); experiment: Diet containing 0.14% ursolic acid, qPCR of quadriceps muscle mRNAs; type: in vivo, C57BL/6 mice; conditions: diet containing 0.14% ursolic acid for 6 weeks, vs control diet
Experimental: (§3) (A) C57BL/6 mice were fed diets lacking or containing 0.14% ursolic acid for 6 weeks before quadriceps muscles were harvested for qPCR analysis of the indicated mRNAs. mRNA levels in ursolic acid-treated mice were normalized to mRNA levels in control mice, which were set at one. Data are means±SEM from 10 mice per condition; *P<0.05, **P<0.01. (B) Cultured C2C12 myoblasts were serum-starved for 6 hours, and then incubated for 2 minutes in the absence or presence of ursolic acid (10 μM) and/or recombinant human growth hormone (100 ng/ml), as indicated. Total cellular protein extracts were subjected to immunoprecipitation with anti-GHR antibody, followed by immunoblot analysis with anti-phospho-tyrosine or anti-GHR antibodies to assess phospho-GHR and total GHR, respectively.
Exon Arrays and Quantitative Real-Time RT-PCR (qPCR) in Muscle and Myotubes—Extraction of skeletal muscle RNA and RNA hybridizations to Mouse Exon 1.0 ST arrays (Affymetrix) were performed as described previously (Ebert, S. M., et al. (2010) Mol. Endocrinol. 24, 790-799). Exon expression arrays examining the effects of Gadd45a overexpression, fasting and muscle denervation in TA muscles of C57BL/6 mice were described previously (Banduseela, V. C., et al. (2009) Physiol. Genomics 39, 141-159; Welle, S., et al. (2004) Exp. Gerontol. 39, 369-377) and can be found in the NCBI Gene Expression Omnibus under GEO Series accession numbers GSE39196, GSE20103 and GSE39195, respectively. Myotube RNA was extracted using TRIzol solution (Invitrogen), and then purified using the RNeasy kit and RNase Free DNase Set (Qiagen). qPCR analyses of mRNAs encoding mouse ATF4, Gadd45a, Bax, caspase-3 (Casp3), androgen receptor (Ar), thyroid hormone receptor-α (Thra), growth hormone receptor (Ghr), hexokinase 2 (Hk2), Suclg1, Coxl1, Tfam, Nos1, MuRF1 (Trim63), atrogin-1 (Fbxo32), cathepsin L (Ctsl), Bnip3, Cdkn1a, PGC-1α (Ppargc1a), GLUT4 (S1c2a4), LC3a (Mapl1c3a) and Vegfa were performed using TaqMan Gene Expression Assays (Applied Biosystems). For qPCR studies, first strand cDNA was synthesized in a 20 μl reaction that contained 2 μg of RNA, random hexamer primers and components of the High Capacity cDNA reverse transcription kit (Applied Biosystems). qPCR was carried out using a 7500 Fast Real-Time PCR System (Applied Biosystems). All qPCR reactions were performed in triplicate and the cycle threshold (Ct) values were averaged to give the final results. To analyze the data, the ΔCt method was used, with level of 36B4 mRNA serving as the invariant control.
To test this, C57BL/6 mice were fed diets lacking or containing 0.14% ursolic acid for 6 weeks before quadriceps muscles were harvested for qPCR analysis. […] These effects of ursolic acid are consistent with ursolic acid's capacity to decrease Gadd45a and Cdkn1a expression.

[5] = general statement, no test described; cited from earlier work
[6] = system: immobilized tibialis anterior (TA) muscle; experiment: Ursolic acid i.p., immobilization-induced skeletal muscle atrophy (TA weight, fiber diameter); type: in vivo, C57BL/6 mice; conditions: 200 mg/kg i.p. twice a day from day 0; TA immobilized day 2; harvest day 8; vs vehicle (corn oil)
Experimental: as §1, with “diameter. (C) Data are mean fiber diameters ±SEM from 10 immobilized TA muscles per condition; ***P<0.0001 by unpaired t-test. (D) Representative cross-sections of muscle fibers immunostained with anti-laminin antibody. (E) Data are fiber size distributions of >3000 fibers from 10 immobilized TA muscles per condition.” for “diameter.”

[7] = molecular target: T1, growth hormone receptor (GHR) (Mus musculus, UniProt P16882); experiment: GHR phosphorylation in serum-starved C2C12 myoblasts (anti-GHR immunoprecipitation, phospho-tyrosine immunoblot); type: cell-based; conditions: ursolic acid 10 μM, 2 minutes; C2C12 myoblasts serum-starved 6 hours; absence or presence of recombinant human growth hormone 100 ng/ml
T1 construct: endogenous in cells; host or cells: C2C12 mouse myoblasts (ATCC CRL-1772), serum-starved for 6 hours
T1 sequence (P16882 25-650): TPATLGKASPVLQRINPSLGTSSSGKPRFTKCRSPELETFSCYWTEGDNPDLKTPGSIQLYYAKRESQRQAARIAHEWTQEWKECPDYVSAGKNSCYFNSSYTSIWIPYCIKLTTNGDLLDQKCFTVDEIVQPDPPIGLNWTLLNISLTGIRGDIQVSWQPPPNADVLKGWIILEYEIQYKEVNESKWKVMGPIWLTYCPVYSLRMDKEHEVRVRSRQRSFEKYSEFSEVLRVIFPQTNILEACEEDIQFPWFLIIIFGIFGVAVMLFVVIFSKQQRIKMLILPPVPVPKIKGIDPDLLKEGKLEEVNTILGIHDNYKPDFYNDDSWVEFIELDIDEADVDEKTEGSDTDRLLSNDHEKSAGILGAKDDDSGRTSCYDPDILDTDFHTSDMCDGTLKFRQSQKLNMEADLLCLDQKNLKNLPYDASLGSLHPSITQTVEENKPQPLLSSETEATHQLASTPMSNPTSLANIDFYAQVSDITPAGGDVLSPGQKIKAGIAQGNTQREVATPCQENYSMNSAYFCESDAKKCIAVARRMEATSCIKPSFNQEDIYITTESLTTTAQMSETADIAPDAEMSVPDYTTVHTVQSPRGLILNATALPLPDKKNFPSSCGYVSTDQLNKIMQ
Experimental: as §3
C2C12 Myotube Culture and Infection—Mouse C2C12 myoblasts were obtained from ATCC (CRL-1772), and maintained at 37° C. and 5% CO2 in Dulbecco's modified Eagle's medium (DMEM) (ATCC #30-2002) containing antibiotics (100 units/ml penicillin, 100 μg/ml streptomycin sulfate) and 10% (v/v) fetal bovine serum (FBS). Myoblasts were set up for experiments on day 0 in 6-well plates at a density of 2.5×10^5 cells/well. On day 2, differentiation was induced by replacing 10% FBS with 2% horse serum. On day 7, cells were rinsed once with PBS, and then 1 ml DMEM containing adenovirus was added to each well. […]

3-β-hydroxy-urs-12-en-28-oic acid [ursolic acid]
Cdkn1a mRNA, immobile TA normalized to mobile TA [1]: prevented induction
Gadd45a mRNA, immobile TA normalized to mobile TA [2]: prevented induction
recovery of skeletal muscle mass after remobilization [3]: significantly enhanced the recovery of skeletal muscle mass
Hk2 mRNA in quadriceps [4]: increased
IGF-I mRNA in quadriceps [4]: increased
Nos1 mRNA in quadriceps [4]: increased
PGC-1α (Ppargc1a) mRNA in quadriceps [4]: increased
Tfam mRNA in quadriceps [4]: increased
Vegfa mRNA in quadriceps [4]: increased
androgen receptor (Ar) mRNA in quadriceps [4]: increased
water solubility [5]: highly water-insoluble
TA muscle weight, left (immobile) normalized to right (mobile) [6]: reduced the loss of muscle mass
size (diameter) of skeletal muscle fibers in immobilized TA muscles [6]: increased the size of skeletal muscle fibers
GHR phosphorylation (phospho-GHR vs total GHR) [7]: increased GHR phosphorylation
